According to ChEMBL document CHEMBL1201862, “PubChem BioAssay data set” (2004):
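These data come from cells grown in 96-well plates and exposed to compound for 48 hours at five concentrations. Here, GI50 denotes the concentration required for 50% inhibition of growth.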 Activity calls are given as the source filed them. No stated cut-off is given here; in the data, active = GI50 up to about 1.1 µM and inactive = higher.

Legend:
Assay in all cases: NCI anticancer screen, dose series, 48 h
Malme-3M = test system: Malme-3M
SW-620 = test system: SW-620
HT-29 = test system: HT-29
HCT-116 = test system: HCT-116
SNB-75 = test system: SNB-75
IGROV-1 = test system: IGROV-1
SK-OV-3 = test system: SK-OV-3
HOP-62 = test system: HOP-62
U-251 = test system: U-251
KM12 = test system: KM12
OVCAR-4 = test system: OVCAR-4
M14 = test system: M14
RPMI-8226 = test system: RPMI-8226
K562 = test system: K562
OVCAR-8 = test system: OVCAR-8
EKVX = test system: EKVX
CAKI-1 = test system: CAKI-1
COLO 205 = test system: COLO 205
ACHN = test system: ACHN
NCI/ADR-RES = test system: NCI/ADR-RES
SF-539 = test system: SF-539
MDA-N = test system: MDA-N
OVCAR-5 = test system: OVCAR-5
HCT-15 = test system: HCT-15
786-0 = test system: 786-0
A498 = test system: A498
HOP-92 = test system: HOP-92
SK-MEL-28 = test system: SK-MEL-28
HL-60 = test system: HL-60
PC-3 = test system: PC-3
DU-145 = test system: DU-145
SK-MEL-2 = test system: SK-MEL-2
OVCAR-3 = test system: OVCAR-3
MOLT-4 = test system: MOLT-4
NCI-H226 = test system: NCI-H226
SF-268 = test system: SF-268
UACC-62 = test system: UACC-62
BT-549 = test system: BT-549
SN12C = test system: SN12C
MDA-MB-435 = test system: MDA-MB-435
MDA-MB-231 = test system: MDA-MB-231
T47D = test system: T47D
SF-295 = test system: SF-295
SNB-19 = test system: SNB-19
A549 = test system: A549
MCF7 = test system: MCF7
TK-10 = test system: TK-10
RXF 393 = test system: RXF 393
CCRF-CEM = test system: CCRF-CEM
NCI-H23 = test system: NCI-H23
UO-31 = test system: UO-31
NCI-H460 = test system: NCI-H460
LOX IMVI = test system: LOX IMVI
SK-MEL-5 = test system: SK-MEL-5
HCC 2998 = test system: HCC 2998
UACC-257 = test system: UACC-257

Measured: GI50

CN(C)CCCNC(=O)c1cc(NC(=O)CCCn2c3ccccc3c3ccccc32)cn1C
45.7 µM: HCT-15
inactive: Malme-3M 17.2 µM | SW-620 > 100 µM | HT-29 47.6 µM | HCT-116 25.9 µM | SNB-75 43 µM | IGROV-1 6.64 µM | SK-OV-3 > 100 µM | HOP-62 > 100 µM | U-251 37.3 µM | KM12 21.4 µM | OVCAR-4 43.1 µM | M14 28.1 µM | RPMI-8226 17.1 µM | K562 31.6 µM | OVCAR-8 48.3 µM | EKVX 15.6 µM | CAKI-1 21.8 µM | COLO 205 21.9 µM | ACHN 26.9 µM | NCI/ADR-RES > 100 µM | SF-539 71.3 µM | MDA-N 35.1 µM | OVCAR-5 73.6 µM | 786-0 80.9 µM | A498 17.7 µM | HOP-92 2.13 µM | SK-MEL-28 49.7 µM | HL-60 22.5 µM | PC-3 20.7 µM | DU-145 > 100 µM | SK-MEL-2 34.8 µM | OVCAR-3 11.5 µM | MOLT-4 11.4 µM | NCI-H226 25.3 µM | SF-268 66.7 µM | UACC-62 20.8 µM | BT-549 > 100 µM | SN12C 48.5 µM | MDA-MB-435 24.3 µM | MDA-MB-231 21 µM | T47D 19.1 µM | SF-295 25.9 µM | SNB-19 25 µM | A549 20.7 µM | MCF7 35.5 µM | TK-10 22.5 µM | RXF 393 32.8 µM | CCRF-CEM 29.6 µM | NCI-H23 31.8 µM | UO-31 25.5 µM | NCI-H460 28.8 µM | LOX IMVI 31 µM | SK-MEL-5 16.7 µM

O=C(Cc1csc(N/N=C2\C(=O)Nc3ccccc32)n1)Nc1ccccc1
38.5 µM: HCT-15
inactive: SW-620 33 µM | HT-29 27 µM | HCT-116 21.4 µM | SNB-75 28.5 µM | IGROV-1 11.9 µM | SK-OV-3 30.3 µM | HOP-62 18.1 µM | U-251 22.6 µM | KM12 29.2 µM | OVCAR-4 41.5 µM | M14 38.3 µM | OVCAR-8 21.1 µM | EKVX 19.9 µM | CAKI-1 23.3 µM | COLO 205 55.1 µM | ACHN 21.6 µM | NCI/ADR-RES 20 µM | HCC 2998 31.6 µM | SF-539 26.4 µM | OVCAR-5 > 100 µM | 786-0 17.7 µM | A498 40.6 µM | UACC-257 25 µM | HOP-92 35.7 µM | SK-MEL-28 21 µM | HL-60 37.1 µM | DU-145 24.9 µM | SK-MEL-2 91.8 µM | OVCAR-3 24.2 µM | MOLT-4 42.5 µM | NCI-H226 10 µM | SF-268 17.7 µM | BT-549 41.7 µM | SN12C 36.6 µM | MDA-MB-435 39.5 µM | MDA-MB-231 28.8 µM | T47D 28.4 µM | SF-295 28.9 µM | SNB-19 26.9 µM | A549 39.9 µM | MCF7 54.3 µM | TK-10 44.1 µM | RXF 393 62.7 µM | NCI-H23 38.9 µM | UO-31 25.3 µM | NCI-H460 31.6 µM | LOX IMVI 46.5 µM | SK-MEL-5 15.3 µM
